Assay results taken from patent US20170210751A1, “PRMT5 INHIBITORS AND USES THEREOF” (Epizyme, Inc., priority 2014, published 2017).
pEC50, pIC50: −log10 of the molar value.

What was measured:
[1] = biological target: T1, PRMT5/MEP50 (Homo sapiens, UniProt O14744); assay: PRMT5 Biochemical Assay (PRMT5/MEP50 enzyme assay on peptide substrate, 3H-SAM Flashplate); details: PRMT5/MEP50 4 nM, 3H-SAM 75 nM, peptide 40 nM, 30 min preincubation at 25 degrees Celsius
T1 construct: Flag-PRMT5; made in house; host or cells: Spodoptera frugiperda (SF9) insect cells, baculovirus (pDEST8)
T1 sequence (O14744 with tags, fused parts or gaps): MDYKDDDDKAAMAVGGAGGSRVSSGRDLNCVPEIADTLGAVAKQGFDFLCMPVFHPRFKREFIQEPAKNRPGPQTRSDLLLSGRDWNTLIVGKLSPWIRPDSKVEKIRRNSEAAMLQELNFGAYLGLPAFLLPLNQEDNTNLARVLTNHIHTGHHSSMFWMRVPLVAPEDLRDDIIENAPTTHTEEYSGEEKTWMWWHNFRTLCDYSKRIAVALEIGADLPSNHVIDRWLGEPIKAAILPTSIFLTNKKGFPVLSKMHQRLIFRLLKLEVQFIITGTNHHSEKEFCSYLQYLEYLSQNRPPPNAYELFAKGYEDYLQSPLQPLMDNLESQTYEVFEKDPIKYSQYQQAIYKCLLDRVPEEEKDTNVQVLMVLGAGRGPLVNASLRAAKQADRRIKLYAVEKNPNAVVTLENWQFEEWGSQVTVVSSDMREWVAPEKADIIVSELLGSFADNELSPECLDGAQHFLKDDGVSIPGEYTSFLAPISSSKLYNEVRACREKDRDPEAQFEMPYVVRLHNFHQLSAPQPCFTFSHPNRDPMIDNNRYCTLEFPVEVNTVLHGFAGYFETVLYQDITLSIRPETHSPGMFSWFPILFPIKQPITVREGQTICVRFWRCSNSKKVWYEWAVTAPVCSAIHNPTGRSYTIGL
T1 sequence (Q9BQA1 with tags, fused parts or gaps partner limits assumed): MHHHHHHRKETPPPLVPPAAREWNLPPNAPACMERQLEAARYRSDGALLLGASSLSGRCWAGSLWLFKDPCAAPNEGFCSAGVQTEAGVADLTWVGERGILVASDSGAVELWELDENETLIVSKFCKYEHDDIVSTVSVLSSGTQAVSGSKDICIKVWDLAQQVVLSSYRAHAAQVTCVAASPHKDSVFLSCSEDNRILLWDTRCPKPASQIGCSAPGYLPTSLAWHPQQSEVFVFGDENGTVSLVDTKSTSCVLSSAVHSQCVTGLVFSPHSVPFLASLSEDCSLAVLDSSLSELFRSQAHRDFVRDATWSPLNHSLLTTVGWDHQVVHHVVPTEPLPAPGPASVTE
Source text: S-adenosylmethionine (SAM), S-adenosylhomocysteine (SAH), bicine, KCl, Tween20, dimethylsulfoxide (DMSO), bovine skin gelatin (BSG), and Tris(2-carboxyethyl)phosphine hydrochloride solution (TCEP) were purchased from Sigma-Aldrich at the highest level of purity possible. ^3H-SAM was purchase from American Radiolabeled Chemicals with a specific activity of 80 Ci/mmol. 384-well streptavidin Flashplates were purchased from PerkinElmer.
Peptide representative of human histone H4 residues 1-15 was synthesized with a C-terminal linker-affinity tag motif and a C-terminal amide cap by 21st Century Biochemicals. The peptide was high high-performance liquid chromatography (HPLC) purified to greater than 95% purity and confirmed by liquid chromatography mass spectrometry (LC-MS). The sequence was Ac-[…][K-Biot]-amide (SEQ ID NO.:3).
Full-length human PRMT5 (NM_006109.3) transcript variant 1 clone was amplified from a fetal brain cDNA library, incorporating flanking 5′ sequence encoding a FLAG tag ([…]) (SEQ ID NO.:4) fused directly to Ala 2 of PRMT5. Full-length human MEP50 (NM_024102) clone was amplified from a human testis cDNA library incorporating a 5′ sequence encoding a 6-histidine tag (MHHHHHH) (SEQ ID NO.:5) fused directly to Arg 2 of MEP50. The amplified genes were sublconed into pENTR/D/TEV (Life Technologies) and subsequently transferred by Gateway™ attL×attR recombination to pDEST8 baculvirus expression vector (Life Technologies).
Recombinant baculovirus and Baculovirus-Infected Insect Cells (BIIC) were generated according to Bac-to-Bac kit instructions (Life Technologies) and Wasilko, 2006, respectively. Protein over-expression was accomplished by infecting exponentially growing Spodoptera frugiperda (SF9) cell culture at 1.2×10^6 cell/ml with a 5000 fold dilution of BIIC stock. Infections were carried out at 27° C. for 72 hours, harvested by centrifugation, and stored at −80° C. for purification.
Flag-PRMT5/6His-MeP50 was eluted with 300 mM Imidazole in the same buffer. The purity of recovered protein was 87%. Reference: Wasilko, D. J. and S. E. Lee: “TIPS: titerless infected-cells preservation and scale-up” Bioprocess J., 5 (2006), pp. 29-32.
General Procedure for PRMT5/MEP50 Enzyme Assays on Peptide Substrates.
The assays were all performed in a buffer consisting of 20 mM Bicine (pH=7.6), 1 mM TCEP, 0.005% BSG, and 0.002% Tween20, prepared on the day of use. Compounds in 100% DMSO (1 ul) were spotted into a polypropylene 384-well V-bottom plates (Greiner) using a Platemate Plus outfitted with a 384-channel head (Thermo Scientific). DMSO (1 ul) was added to Columns 11, 12, 23, 24, rows A-H for the maximum signal control and 1 ul of SAH, a known product and inhibitor of PRMT5/MEP50, was added to columns 11, 12, 23, 24, rows I-P for the minimum signal control. A cocktail (40 ul) containing the PRMT5/MEP50 enzyme and the peptide was added by Multidrop Combi (Thermo-Fisher). The compounds were allowed to incubate with PRMT5/MEP50 for 30 min at 25 degrees Celsius, then a cocktail (10 ul) containing ^3H-SAM was added to initiate the reaction (final volume=51 ul). The final concentrations of the components were as follows: PRMT5/MEP50 was 4 nM, ^3H-SAM was 75 nM, peptide was 40 nM, SAH in the minimum signal control wells was 100 uM, and the DMSO concentration was 1%. The assays were stopped by the addition of non-radioactive SAM (10 ul) to a final concentration of 600 uM, which dilutes the ^3H-SAM to a level where its incorporation into the peptide substrate is no longer detectable. 50 ul of the reaction in the 384-well polypropylene plate was then transferred to a 384-well Flashplate and the biotinylated peptides were allowed to bind to the streptavidin surface for at least 1 hour before being washed three times with 0.1% Tween20 in a Biotek ELx405 plate washer. […]

[2] = tested on: Z-138 cell line; assay: Z-138 Proliferation Assay (Cell Titer Glo); assay type: cell-based; details: Homo sapiens, 120 h; Z-138 cells, 5 days incubation, ATP (Cell Titer Glo)
Source text: Z-138 Proliferation Assay
Z-138 suspension cells were purchased from ATCC (American Type Culture Collection, Manassas, Va.). RPMI/Glutamax medium, penicillin-streptomycin, heat inactivated fetal bovine serum were purchased from Life Technologies, Grand Island, N.Y., USA. V-bottom polypropylene 384-well plates were purchased from Greiner Bio-One, Monroe, N.C., USA. Cell culture 384-well white opaque plates were purchased from Perkin Elmer, Waltham, Mass., USA. Cell-Titer Glo® was purchased from Promega Corporation, Madison, Wis., USA. SpectraMax M5 plate reader was purchased from Molecular Devices LLC, Sunnyvale, Calif., USA.
Z-138 suspension cells were maintained in growth medium (RPMI 1640 supplemented with 10% v/v heat inactivated fetal bovine serum and cultured at 37° C. under 5% CO2. Under assay conditions, cells were incubated in assay medium (RPMI 1640 supplemented with 10% v/v heat inactivated fetal bovine serum and 100 units/mL penicillin-streptomycin) at 37° C. under 5% CO2.
For the assessment of the effect of compounds on the proliferation of the Z-138 cell line, exponentially growing cells were plated in 384-well white opaque plates at a density of 10,000 cells/ml in a final volume of 50 μl of assay medium. A compound source plate was prepared by performing triplicate nine-point 3-fold serial dilutions in DMSO, beginning at 10 mM (final top concentration of compound in the assay was 20 μM and the DMSO was 0.2%). A 100 nL aliquot from the compound stock plate was added to its respective well in the cell plate. […] After addition of compounds, assay plates were incubated for 5 days at 37° C., 5% CO2, relative humidity >90%.
Cell viability was measured by quantitation of ATP present in the cell cultures, adding 35 μl of Cell Titer Glo® reagent to the cell plates. Luminescence was read in the SpectraMax M5 microplate reader. The concentration of compound inhibiting cell viability by 50% was determined using a 4-parametric fit of the normalized dose response curves.

[3] = tested on: Symmetric di-Methyl Arginine in Z-138 cells; assay: Z-138 Methylation Assay (In Cell Western for symmetric di-methyl arginine); assay type: cell-based; details: Homo sapiens, 96 hours incubation, symmetric di-methyl arginine normalised to DNA content, read-out: ICW EC50
Source text: Z-138 suspension cells were purchased from ATCC (American Type Culture Collection, Manassas, Va.). RPMI/Glutamax medium, penicillin-streptomycin, heat inactivated fetal bovine serum, and D-PBS were purchased from Life Technologies, Grand Island, N.Y., USA. Odyssey blocking buffer, 800CW goat anti-rabbit IgG (H+L) antibody, and Licor Odyssey infrared scanner were purchased from Licor Biosciences, Lincoln, Nebr., USA. Symmetric di-methyl arginine antibody was purchased from EMD Millipore, Billerica, Mass., USA. 16% Paraformaldehyde was purchased from Electron Microscopy Sciences, Hatfield, Pa., USA.
Z-138 suspension cells were maintained in growth medium (RPMI 1640 supplemented with 10% v/v heat inactivated fetal bovine serum and 100 units/mL penicillin-streptomycin) and cultured at 37° C. under 5% CO2.
Cell Treatment, In Cell Western (ICW) for detection of Symmetric di-Methyl Arginine and DNA content.
Z-138 cells were seeded in assay medium at a concentration of 50,000 cells per mL to a 384-well cell culture plate with 50 μL per well. Compound (100 nL) from 384 well source plates was added directly to 384 well cell plate. Plates were incubated at 37° C., 5% CO2 for 96 hours. After four days of incubation, 40 μL of cells from incubated plates were added to poly-D-lysine coated 384 well culture plates (BD Biosciences 356697). Plates were incubated at room temperature for 30 minutes then incubated at 37° C., 5% CO2 for 5 hours. After the incubation, 40 μL per well of 8% paraformaldehyde in PBS (16% paraformaldahyde was diluted to 8% in PBS) was added to each plate and incubated for 30 minutes. Plates were transferred to a Biotek 405 plate washer and washed 5 times with 100 μL per well of wash buffer (IX PBS with 0.1% Triton X-100 (v/v)). Next […] well of Odyssey blocking buffer were added to each plate and incubated 1 hour at room temperature. Blocking buffer was removed and 20 μL per well of primary antibody was added (symmetric di-methyl arginine diluted 1:100 in Odyssey buffer with 0.1% Tween 20 (v/v)) and plates were incubated overnight (16 hours) at 4° C. Plates were washed 5 times with 100 μL per well of wash buffer. Next 20 μL per well of secondary antibody was added (1:200 800CW goat anti-rabbit IgG (H+L) antibody, 1:1000 DRAQ5 (Biostatus limited) in Odyssey buffer with 0.1% Tween 20 (v/v)) and incubated for 1 hour at room temperature. The plates were washed 5 times with 100 μL per well wash buffer then 1 time with 100 μL per well of water. Plates were allowed to dry at room temperature then imaged on the Licor Odyssey machine which measures integrated intensity at 700 nm and 800 nm wavelengths. Both 700 and 800 channels were scanned.
First, the ratio for each well was determined by:
Each plate included fourteen control wells of DMSO only treatment (minimum inhibition) as well as fourteen control wells for maximum inhibition treated with 3 μM of a reference compound (Background wells). The average of the ratio values for each control type was calculated and used to determine the percent inhibition for each test well in the plate. Reference compound was serially diluted three-fold in DMSO for a total of nine test concentrations, beginning at 3 μM. Percent inhibition was determined and IC50 curves were generated using triplicate wells per concentration of compound.

Row | SMILES | pIC50 [1] | pEC50 [2] | pEC50 [3]
1 | CC(=O)N1CC(Nc2cc(C(=O)NC[C@H](O)CN3CCc4nc(C)sc4C3)ncn2)C1 [Compound 1-6, (S)-6-((1-acetylazetidin-3-yl)amino)-N-(2-hydroxy-3-(2-methyl-6,7-dihydrothiazolo[5,4-c]pyridin-5(4H)-yl)propyl)pyrimidine-4-carboxamide] | 5.00 to 6.00 | < 5.30 | –
2 | OC(COc1cccc(CNC2CCCC2)c1)CN1CCc2ncccc2C1 (stereo not drawn) [Compound 2-1, 1-(3-((cyclopentylamino)methyl)phenoxy)-3-(7,8-dihydro-1,6-naphthyridin-6(5H)-yl)propan-2-ol] | < 4.30 | < 4.40 | –
3 | O=C(NC[C@H](O)CN1CCc2cccnc2C1)c1cc(NC2COC2)ncn1 [Compound 2-10] | 5.00 to 6.00 | 5.00 to 6.00 | –
4 | OC(COc1cccc(CNC2CCCC2)c1)CN1CCc2[nH]nc(-c3ccccc3)c2C1 (stereo not drawn) [Compound 3-9, 1-(3-((cyclopentylamino)methyl)phenoxy)-3-(3-phenyl-6,7-dihydro-1H-pyrazolo[4,3-c]pyridin-5(4H)-yl)propan-2-ol] | 4.30 to 5.00 | 4.30 to 5.00 | –
5 | OC(COc1cccc(CNC2CCCC2)c1)CN1CCc2[nH]ncc2C1 (stereo not drawn) [Compound 3-14] | < 4.30 | < 4.40 | –
6 | O=C(NC[C@H](O)CN1CCc2[nH]ncc2C1)c1cc(NC2COC2)ncn1 [Compound 3-19] | < 5.00 | – | < 6.00
7 | CC(=O)N1CCC(Nc2cc(C(=O)NC[C@H](O)CN3CCc4[nH]ncc4C3)ncn2)CC1 [Compound 3-20] | 5.00 to 6.00 | – | –
8 | OC(COc1ccccc1)CN1CCc2[nH]nc(-c3ccccc3)c2C1 (stereo not drawn) [Compound 3-32] | < 4.30 | – | –
9 | CC(=O)N1CCC(Nc2cc(C(=O)NC[C@H](O)CN3CCc4cnn(C)c4C3)ccn2)CC1 [Compound 3-37, (S)-2-((1-acetylpiperidin-4-yl)amino)-N-(2-hydroxy-3-(1-methyl-4,5-dihydro-1H-pyrazolo[3,4-c]pyridin-6(7H)-yl)propyl)isonicotinamide] | 6.00 to 7.00 | – | –
10 | O=C(NC[C@H](O)CN1CCc2cn[nH]c2C1)c1cc(NC2COC2)ncn1 [Compound 3-39] | < 5.00 | < 5.30 | –
11 | Cn1cc2c(n1)CN(C[C@@H](O)CNC(=O)c1cc(NC3COC3)ncn1)CC2 [Compound 3-42] | < 5.00 | – | –
12 | Cn1ncc2c1CN(C[C@@H](O)CNC(=O)c1cc(NC3COC3)ncn1)CC2 [Compound 3-43] | 5.00 to 6.00 | – | –
13 | CC(=O)N1CC(Nc2cc(C(=O)NC[C@H](O)CN3CCc4cn(C)nc4C3)ncn2)C1 [Compound 3-48] | < 5.00 | – | –
14 | CC(=O)N1CC(Nc2cc(C(=O)NC[C@H](O)CN3CCc4cnn(C)c4C3)ncn2)C1 [Compound 3-49] | 5.00 to 6.00 | – | –
15 | CC(=O)N1CCC(Nc2cc(C(=O)NC[C@H](O)CN3CCc4cn(C)nc4C3)ccn2)CC1 [Compound 3-55] | 6.00 to 7.00 | – | –
16 | CC(=O)N1CCC(Nc2cc(C(=O)NC[C@H](O)CN3CCc4cn(C)nc4C3)ncn2)CC1 [Compound 3-59] | < 5.00 | – | –
17 | CC(=O)N1CCC(Nc2cc(C(=O)NC[C@H](O)CN3CCc4cnn(C)c4C3)ncn2)CC1 [Compound 3-60] | 6.00 to 7.00 | – | –
